Experimental data reported in patent US10829458B2 (Araxes Pharma LLC, priority 2015, dated 2020).

Legend:
[1] = Whole blood stability; assay type: in vitro ADME; settings: 37° C., time points 0, 1, 2, 4 hr, LC/MS/MS; for half-life at 5 µM: mouse, whole blood, read-out: Whole Blood Stability (T1/2) hr. Mouse (converted)
Procedure: Test compounds were prepared as a 500 μM stock solution in DMSO (Adding 10 μl of 10 mM DMSO stock solution to 190 μl of 100% DMSO). Whole blood was thawed on ice. A whole blood plate was prepared by adding 460 μl of the whole blood (different species as needed) to a 96-well in ml deep well plate. The whole blood plate was preincubated at 37° C. for 10 min. 4 μl of compound solution and 396 μl of whole blood was added to the plate and mixed thoroughly. Each sample was aliquoted (30 μl) to the incubation plate (cluster tubes) and quenched at time zero with ice-cold 100% ACN, and the incubation plates were added to the 37° C. incubator (200 μl).
The time zero sample was maintained at 4° C. until centrifuged. All other samples were quench at different time points (1, 2, 4 hr), vortexed for 30 seconds and centrifuged at 3500 rpm for 15 min at 4° C. 30 μl of supernatant was added to 170 μl 0.1% FA aqueous solution and the sample was analyzes by LC/MS/MS.

[2] = molecular target: T1, KRAS G12C 1-169, his-tagged protein, GDP-loaded (Homo sapiens, UniProt P01116, G12C); assay: Biochemical assay: covalent modification of KRAS G12C measured by mass spectrometry (RapidFire/TOF or Q-Exactive); settings: covalent binding to KRAS G12C
T1 construct: KRAS G12C 1-169, his-tagged protein, GDP-loaded
In short: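 Covalent adduct formation read by intact-mass spectrometry (TOF or Q Exactive Plus, charge envelopes deconvoluted into modified and unmodified species) after formic acid quench. Reactions contained 2 μM GDP-bound KRAS G12C 1-169 (his-tag) in Hepes/NaCl/MgCl2 buffer plus 10, 30 or 100 μM final compound, held 30 min, 2 h or 24 h at room temperature.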

| half-life at 5 µM [1] | Whole Blood Stability (T1/2) hr. Mouse [1] | SMILES | Binding % ([2]; compounds of structure (III)) | Binding % ([2]; compounds of structure (I)) |
| --- | --- | --- | --- | --- |
| 8.8 h | – | C=CC(=O)N1[C@@H](C)CN(c2ncnc3c(F)c(-c4c(O)cccc4F)c(Cl)cc23)C[C@@H]1C [III-18, 1-((2S,6S)-4-(6-chloro-8-fluoro-7-(2-fluoro-6-hydroxy-phenyl)quinazolin-4-yl)-2,6-dimethyl-piperazin-1-yl)prop-2-en-1-one] | + (+ indicates binding activity up to 50%) | – |
| > 12 h | – | C=CC(=O)N1[C@H](C)CN(c2ncnc3c(F)c(-c4c(O)cccc4F)c(Cl)cc23)C[C@H]1C [III-22, 1-((2R,6R)-4-(6-chloro-8-fluoro-7-(2-fluoro-6-hydroxy-phenyl)quinazolin-4-yl)-2,6-dimethyl-piperazin-1-yl)prop-2-en-1-one] | + (+ indicates binding activity up to 50%) | – |
| 10.6 h | – | C=CC(=O)N1CCN(c2ncnc3c(F)c(-c4c(O)cccc4F)c(Cl)cc23)C[C@@H]1C [III-20, 1-((2S)-4-(6-chloro-8-fluoro-7-(2-fluoro-6-hydroxy-phenyl)quinazolin-4-yl)-2-methyl-piperazin-1-yl)prop-2-en-1-one] | ++ (++ indicates activity from 50% to 90%) | – |
| > 12 h | – | C=CC(=O)N1CCN(c2ncnc3c(F)c(-c4c(O)cccc4F)c(Cl)cc23)C[C@H]1C [III-21, 1-((2R)-4-(6-chloro-8-fluoro-7-(2-fluoro-6-hydroxy-phenyl)quinazolin-4-yl)-2-methyl-piperazin-1-yl)prop-2-en-1-one] | ++ (++ indicates activity from 50% to 90%) | – |
| 12.5 h | – | C=CC(=O)N1CCN(c2ncnc3c(F)c(-c4c(O)cccc4F)c(Cl)cc23)C(C)(C)C1 [III-17, 1-(4-(6-chloro-8-fluoro-7-(2-fluoro-6-hydroxy-phenyl)quinazolin-4-yl)-3,3-dimethyl-piperazin-1-yl)prop-2-en-1-one] | ++ (++ indicates activity from 50% to 90%) | – |
| 10.9 h | – | C=CC(=O)N1[C@H](C)CN(c2ncnc3c(F)c(-c4c(O)cccc4F)c(Cl)cc23)C[C@@H]1C (atropisomer, axis not shown) [III-29, 1-((2S,6R)-4-((R)-6-chloro-8-fluoro-7-(2-fluoro-6-hydroxy-phenyl)quinazolin-4-yl)-2,6-dimethyl-piperazin-1-yl)prop-2-en-1-one] | + (+ indicates binding activity up to 50%) | – |
| – | 6.2 h | C=CC(=O)N1CCN(c2ncnc3c(F)c(-c4c(O)cccc4F)c(Cl)cc23)[C@@H](C)C1 [III-14, 1-((3S)-4-(6-chloro-8-fluoro-7-(2-fluoro-6-hydroxy-phenyl)quinazolin-4-yl)-3-methyl-piperazin-1-yl)prop-2-en-1-one] | ++ (++ indicates activity from 50% to 90%) | – |
| 9.9 h | – | C=CC(=O)N1C[C@H](C)N(c2ncnc3c(F)c(-c4c(O)cccc4F)c(Cl)cc23)[C@@H](C)C1 [III-37, 1-((3S,5S)-4-(6-chloro-8-fluoro-7-(2-fluoro-6-hydroxy-phenyl)quinazolin-4-yl)-3,5-dimethyl-piperazin-1-yl)prop-2-en-1-one] | ++ (++ indicates activity from 50% to 90%) | – |
| – | 10.4 h | C=CC(=O)N1CCN(c2ncnc3c(F)c(-c4c(O)cccc4F)c(Cl)cc23)[C@@H](C)C1 (atropisomer, axis not shown) [III-24, 1-((S)-4-((S)-6-chloro-8-fluoro-7-(2-fluoro-6-hydroxy-phenyl)quinazolin-4-yl)-3-methyl-piperazin-1-yl)prop-2-en-1-one] | +++ (+++ indicates binding activity greater than 90%) | – |
| 3.99 h | – | C=CC(=O)N1CCN(c2ncnc3c(F)c(-c4c(O)cccc4F)c(Cl)cc23)CC1 (atropisomer, axis not shown) [A, reference compound] | – | – |
| – | – | C=CC(=O)N1CCN(c2nc(OCCN3CCC(F)(F)C3)nc3c(F)c(-c4c(O)cccc4F)c(Cl)cc23)CC1 (atropisomer, axis not shown) [Example I-98, (R)-1-(4-(6-chloro-2-(2-(3,3-difluoro-pyrrolidin-1-yl)ethoxy)-8-fluoro-7-(2-fluoro-6-hydroxyphenyl)quinazolin-4-yl)piperazin-1-yl) prop-2-en-1-one] | – | + (+ indicates binding activity up to 50%) |
| – | – | CN(C)C/C=C/C(=O)N1CCN(c2nc(OCCN3CCOCC3)nc3c(F)c(-c4cc(O)cc5ccccc45)c(Cl)cc23)CC1 [Example I-65, (E)-1-(4-(6-chloro-8-fluoro-7-(3-hydroxy-naphthalen-1-yl)-2-(2-morpholino-ethoxy)quinazolin-4-yl)piperazin-1-yl)-4-(dimethyl-amino)but-2-en-1-one] | – | +++ (+++ indicates binding activity greater than 90%) |
| – | – | C=CC(=O)N1CCN(c2nc(OCC(O)CN(C)C)nc3c(F)c(-c4cc(O)cc5ccccc45)c(Cl)cc23)CC1 (stereo not shown) [Example I-58, 1-(4-(6-chloro-2-(3-(dimethyl-amino)-2-hydroxy-propoxy)-8-fluoro-7-(3-hydroxy-naphthalen-1-yl)quinazolin-4-yl)piperazin-1-yl)prop-2-en-1-one] | – | +++ (+++ indicates binding activity greater than 90%) |
| – | – | C=CC(=O)N1CCN(c2nc(NC3CN(C(C)C)C3)nc3c(F)c(-c4c(O)cccc4F)c(Cl)cc23)CC1 [Example I-174, 1-(4-(6-chloro-8-fluoro-7-(2-fluoro-6-hydroxyphenyl)-2-((1-isopropyl-azetidin-3-yl)amino)quinazolin-4-yl)piperazin-1-yl) prop-2-en-1-one] | – | + (+ indicates binding activity up to 50%) |
| – | – | C=CC(=O)N1CCN(c2nc(NC3CN(C(C)C)C3)nc3c(F)c(-c4c(C)ccc5[nH]ncc45)c(Cl)cc23)CC1 [Example I-173, 1-(4-(6-chloro-8-fluoro-2-((1-isopropyl-azetidin-3-yl)amino)-7-(5-methyl-1H-indazol-4-yl)quinazolin-4-yl)piperazin-1-yl) prop-2-en-1-one] | – | + (+ indicates binding activity up to 50%) |
| – | – | C=CC(=O)N1CCN(c2ncnc3c(F)c(-c4c(O)cccc4F)c(Cl)cc23)CC1C(F)F (stereo not shown) [III-19, 1-(4-(6-chloro-8-fluoro-7-(2-fluoro-6-hydroxy-phenyl)quinazolin-4-yl)-2-(difluoro-methyl)piperazin-1-yl)prop-2-en-1-one] | +++ (+++ indicates binding activity greater than 90%) | – |
| – | – | C=CC(=O)N1CCN(c2nc(NCCc3ncccn3)nc3c(F)c(-c4c(C)ccc5[nH]ncc45)c(Cl)cc23)CC1 [Example I-169, 1-(4-(6-chloro-8-fluoro-7-(5-methyl-1H-indazol-4-yl)-2-((2-(pyrimidin-2-yl)ethyl)amino)quinazolin-4-yl)piperazin-1-yl) prop-2-en-1-one] | – | ++ (++ indicates binding activity from 50 to 90%) |
| – | – | C=CC(=O)N1C(C)CN(c2ncnc3c(F)c(-c4c(O)cccc4F)c(Cl)cc23)CC1C (stereo not shown) [III-9, 1-(4-(6-chloro-8-fluoro-7-(2-fluoro-6-hydroxy-phenyl)quinazolin-4-yl)-2,6-dimethyl-piperazin-1-yl)prop-2-en-1-one] | ++ (++ indicates activity from 50% to 90%) | – |
| – | – | C=CC(=O)N1CCN(c2nc(NC3CCN(CC4CC4)CC3)nc3c(F)c(-c4c(O)cccc4F)c(Cl)cc23)CC1 [Example I-110, 1-(4-(6-chloro-2-(1-(cyclopropyl-methyl)piperidin-4-ylamino)-8-fluoro-7-(2-fluoro-6-hydroxyphenyl)quinazolin-4-yl)piperazin-1-yl) prop-2-en-1-one] | – | +++ (+++ indicates binding activity greater than 90%) |
